Drawing on patent US20260242353A1, “HETEROARYL DERIVATIVES AS DDRs INHIBITORS” (CHIESI FARMACEUTICI S.P.A., priority 2022, published 2026), this text covers Ki for 20 molecules.

Structures are written as SMILES.

In test [1] the target is T1, DDR1 (Homo sapiens, UniProt Q08345).
T1 construct: purchased Carna Biosciences
The test can be described thus: LanthaScreen Europium Kinase Binding assay, DDR1. To be noted: 5 nM DDR1, 20 nM Kinase Tracer 178, 1 h at rt; Ki from IC50 by Cheng-Prusoff; read-out: Ki DDR1. The protocol: (§1) DDR1 and DDR2 binding assays were performed using Life Technologies LanthaScreen™ Europium Kinase Binding assay. The compounds were incubated with 5 nM DDR1 (Carna Biosciences) or 5 nM DDR2 (Life Technologies) for 1 h at rt in white 384-well OptiPlate (PerkinElmer), containing 20 nM or 10 nM Kinase Tracer 178 respectively and 2 nM Europium labelled anti-GST antibody (Life Technologies) in assay buffer (50 mM HEPES pH 7.5, 10 mM MgCI2, 1 mM EGTA and 0.01% BRIJ35). The ratio of fluorescence emission 665 nm/615 nm after excitation at 340 nm was obtained using the Tecan Spark 20M plate reader. IC50 values were determined in GraphPad Prism 7.0 software, using 4 parameter model: log(inhibitor) vs. response. IC50 values were converted in Ki using the Cheng-Prusoff equation (Ki=IC50/(1+[Tracer]/Kd).
For orientation: TR-FRET usually uses a lanthanide donor and a delayed reading to cut background.

In test [2] the target is T2, DDR2 (Homo sapiens, UniProt Q16832).
T2 construct: purchased Life Technologies
T2 sequence (Q16832 22-855): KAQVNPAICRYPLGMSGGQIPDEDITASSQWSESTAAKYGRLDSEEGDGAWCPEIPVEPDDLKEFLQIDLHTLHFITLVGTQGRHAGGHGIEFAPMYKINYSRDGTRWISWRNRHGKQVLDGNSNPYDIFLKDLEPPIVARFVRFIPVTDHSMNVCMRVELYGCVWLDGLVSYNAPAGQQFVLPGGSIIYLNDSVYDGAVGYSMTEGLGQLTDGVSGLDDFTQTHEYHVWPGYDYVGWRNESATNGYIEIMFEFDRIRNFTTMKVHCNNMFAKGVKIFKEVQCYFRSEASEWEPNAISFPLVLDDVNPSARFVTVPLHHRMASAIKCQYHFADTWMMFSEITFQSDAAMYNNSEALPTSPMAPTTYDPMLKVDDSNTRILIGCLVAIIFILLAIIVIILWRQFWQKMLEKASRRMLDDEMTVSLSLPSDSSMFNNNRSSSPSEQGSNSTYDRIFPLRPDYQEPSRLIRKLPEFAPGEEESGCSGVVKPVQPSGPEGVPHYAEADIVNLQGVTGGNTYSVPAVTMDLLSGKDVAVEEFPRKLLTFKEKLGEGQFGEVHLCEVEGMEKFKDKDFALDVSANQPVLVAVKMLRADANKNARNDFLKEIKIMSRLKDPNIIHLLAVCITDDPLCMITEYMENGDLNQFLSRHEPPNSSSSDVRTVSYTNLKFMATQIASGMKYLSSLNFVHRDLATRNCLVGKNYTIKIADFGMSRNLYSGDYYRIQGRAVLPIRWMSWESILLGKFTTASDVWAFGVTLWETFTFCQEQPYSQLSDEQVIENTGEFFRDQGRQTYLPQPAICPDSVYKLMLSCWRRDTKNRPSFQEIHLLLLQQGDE
The test can be described thus: LanthaScreen Europium Kinase Binding assay, DDR2. To be noted: 5 nM DDR2, 10 nM Kinase Tracer 178, 1 h at rt; Ki from IC50 by Cheng-Prusoff; read-out: Ki DDR2. The protocol:
as §1

The Ki is the equilibrium dissociation constant of an inhibitor or competing ligand from its target.

T1 sequence (Q08345 19-913): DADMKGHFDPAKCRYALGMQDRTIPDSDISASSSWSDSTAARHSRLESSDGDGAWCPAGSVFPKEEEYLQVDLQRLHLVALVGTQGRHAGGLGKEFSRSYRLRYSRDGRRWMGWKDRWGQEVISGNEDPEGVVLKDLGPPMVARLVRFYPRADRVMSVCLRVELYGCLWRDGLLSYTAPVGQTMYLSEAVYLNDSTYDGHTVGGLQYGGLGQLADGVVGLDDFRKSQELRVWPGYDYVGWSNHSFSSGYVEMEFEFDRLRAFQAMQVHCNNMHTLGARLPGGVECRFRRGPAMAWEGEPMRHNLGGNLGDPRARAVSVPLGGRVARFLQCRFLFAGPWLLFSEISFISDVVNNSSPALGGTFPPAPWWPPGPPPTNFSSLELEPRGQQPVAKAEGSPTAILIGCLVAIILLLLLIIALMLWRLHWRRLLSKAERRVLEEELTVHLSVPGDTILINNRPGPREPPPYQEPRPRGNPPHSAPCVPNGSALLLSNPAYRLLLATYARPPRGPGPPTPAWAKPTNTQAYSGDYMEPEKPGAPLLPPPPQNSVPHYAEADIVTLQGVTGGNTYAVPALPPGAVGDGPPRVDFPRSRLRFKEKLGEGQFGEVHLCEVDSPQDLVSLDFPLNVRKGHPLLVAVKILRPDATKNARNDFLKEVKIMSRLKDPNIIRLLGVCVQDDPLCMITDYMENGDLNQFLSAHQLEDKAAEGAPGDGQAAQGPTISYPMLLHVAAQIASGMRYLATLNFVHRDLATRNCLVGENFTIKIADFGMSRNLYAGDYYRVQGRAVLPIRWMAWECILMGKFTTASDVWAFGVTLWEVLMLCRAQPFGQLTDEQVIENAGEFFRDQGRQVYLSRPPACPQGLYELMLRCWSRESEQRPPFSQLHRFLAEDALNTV

As to `CC(=O)Nc1ccc(OC2CN(c3cc(C(=O)Nc4cncc(C(F)(F)F)c4)ccc3C)C2)cn1` [Example 45, 3-(3-((6-acetamidopyridin-3-yl)oxy)azetidin-1-yl)-4-methyl-N-(5-(trifluoromethyl)pyridin-3-yl)benzamide], the Ki in test [1] was less than 5 nM; in test [2], 5 to 25 nM.
Consider `Cc1ccc(C(=O)Nc2cc(C(C)(C)C)on2)cc1[C@@H]1CCN(c2cncc(C(N)=O)c2)C1` [Example 11, (S)-5-(3-(5-((5-(tert-butyl)isoxazol-3-yl)carbamoyl)-2-methylphenyl)pyrrolidin-1-yl)nicotinamide], for which the Ki in test [1] and in test [2] was less than 5 nM in each case.
Take `O=C(Nc1cncc(C(F)(F)F)c1)c1ccc(C(F)F)c(C2CCN(c3cncnc3)C2)c1` (stereo not shown) [Example 120, 4-(difluoromethyl)-3-(1-(pyrimidin-5-yl)pyrrolidin-3-yl)-N-(5-(trifluoromethyl)pyridin-3-yl)benzamide]: the Ki fell in the range of 5 to 25 nM in test [1] and 25 to 100 nM in test [2].
On the same counts, the results for `O=C(Nc1cncc(C(F)(F)F)c1)c1ccc(OC(F)F)c(C2CCN(c3cncnc3)C2)c1` (single isomer, unassigned) [Example 116, 4-(difluoromethoxy)-3-(1-(pyrimidin-5-yl)pyrrolidin-3-yl)-N-(5-(trifluoromethyl)pyridin-3-yl)benzamide] are less than 5 nM and less than 5 nM.
In the case of `Cc1ccc(C(=O)Nc2cc(C(C)(C)C(F)(F)F)on2)cc1[C@@H]1CCN(c2cncc(C(N)=O)c2)C1` [Example 4, (S)-5-(3-(2-methyl-5-((5-(1,1,1-trifluoro-2-methylpropan-2-yl)isoxazol-3-yl)carbamoyl)phenyl)pyrrolidin-1-yl)nicotinamide], the Ki in test [1] and in test [2] was less than 5 nM each time.
Consider `CNc1ncc(N2CC[C@@H](c3cc(C(=O)Nc4cncc(C(F)(F)F)c4)ccc3C)C2)cn1` [Example 99, (S)-4-methyl-3-(1-(2-(methylamino)pyrimidin-5-yl)pyrrolidin-3-yl)-N-(5-(trifluoromethyl)pyridin-3-yl)benzamide], for which the figures for the Ki in test [1] and in test [2] were less than 5 nM and 5 to 25 nM, respectively.
On the same counts, the results for `Cc1ccc(C(=O)Nc2cc(C(C)(C)C)n(C)n2)cc1[C@@H]1CCN(c2cncc(C(N)=O)c2)C1` [Example 3, (S)-5-(3-(5-((5-(tert-butyl)-1-methyl-1H-pyrazol-3-yl)carbamoyl)-2-methylphenyl)pyrrolidin-1-yl)nicotinamide] are less than 5 nM and less than 5 nM.
The matching figures for `Cc1ccc(C(=O)Nc2cncc(OC(F)(F)F)c2)cc1[C@@H]1CCN(c2cnn3ccncc23)C1` [Example 98, (S)-4-methyl-3-(1-(pyrazolo[1,5-a]pyrazin-3-yl)pyrrolidin-3-yl)-N-(5-(trifluoromethoxy)pyridin-3-yl)benzamide]: less than 5 nM and less than 5 nM.
On the same counts, the results for `O=C(Nc1cncc(C(F)(F)F)c1)c1ccc(OC(F)F)c(C2CCN(c3cncnc3)C2)c1` (single isomer, unassigned) [Example 117, 4-(difluoromethoxy)-3-(1-(pyrimidin-5-yl)pyrrolidin-3-yl)-N-(5-(trifluoromethyl)pyridin-3-yl)benzamide] are less than 5 nM and less than 5 nM.
Consider `Cc1ccc(C(=O)Nc2ccc(OC(F)(F)F)cn2)cc1[C@@H]1CCN(c2cncnc2)C1` [Example 20, (S)-4-methyl-3-(1-(pyrimidin-5-yl)pyrrolidin-3-yl)-N-(5-(trifluoromethoxy)pyridin-2-yl)benzamide], for which the results for the Ki in test [1] and in test [2] were less than 5 nM and 5 to 25 nM, respectively.
On to `Cc1ccc(C(=O)Nc2cncc(C(F)(F)F)c2)cc1[C@@H]1CCN(c2cnc3ccc(CN4CCOCC4)cn23)C1` [Example 77, (S)-4-methyl-3-(1-(6-(morpholinomethyl)imidazo [1,2-a]pyridin-3-yl)pyrrolidin-3-yl)-N-(5-(trifluoromethyl)pyridin-3-yl)benzamide], for which the Ki in test [1] is less than 5 nM; in test [2], 5 to 25 nM.
On the same counts, the results for `Cc1ccc(C(=O)Nc2cncc(C(F)(F)F)c2)cc1[C@@H]1CCN(c2cncc(C(N)=O)c2)C1` [Example 1, (S)-5-(3-(2-methyl-5-((5-(trifluoromethyl)pyridin-3-yl)carbamoyl)phenyl)pyrrolidin-1-yl)nicotinamide] are less than 5 nM and less than 5 nM.
On the same counts, the results for `Cc1ccc(C(=O)Nc2cc(OC(F)F)ccn2)cc1[C@@H]1CCN(c2cnccn2)C1` [Example 92, N-[4-(difluoromethoxy)-2-pyridyl]-4-methyl-3-[(3S)-1-pyrazin-2-ylpyrrolidin-3-yl]benzamide] are less than 5 nM and 5 to 25 nM.
The matching figures for `Cc1ccc(C(=O)Nc2cc(C(C)(C)C(F)(F)F)on2)cc1[C@@H]1CCN(c2cnccc2C#N)C1` [Example 55, (S)-3-(1-(4-cyanopyridin-3-yl)pyrrolidin-3-yl)-4-methyl-N-(5-(1,1,1-trifluoro-2-methylpropan-2-yl)isoxazol-3-yl)benzamide]: less than 5 nM and less than 5 nM.
As to `CNC(=O)c1cc(N2CC[C@@H](c3cc(C(=O)Nc4cncc(C(F)(F)F)c4)ccc3C)C2)ccn1` [Example 87, (S)-N-methyl-4-(3-(2-methyl-5-((5-(trifluoromethyl)pyridin-3-yl)carbamoyl)phenyl)pyrrolidin-1-yl)picolinamide], the values for the inhibition constant Ki in test [1] and in test [2] were less than 5 nM and 5 to 25 nM, respectively.
The matching figures for `Cc1ccc(C(=O)Nc2cc(C(C)(C)C)no2)cc1[C@@H]1CCN(c2cncnc2)C1` [Example 19, (S)-N-(3-(tert-butyl)isoxazol-5-yl)-4-methyl-3-(1-(pyrimidin-5-yl)pyrrolidin-3-yl)benzamide]: less than 5 nM and less than 5 nM.
The matching figures for `Cc1ccc(C(=O)Nc2cncc(C(F)(F)F)c2)cc1[C@@H]1CCN(c2cnn3ccccc23)C1` [Example 34, (S)-4-methyl-3-(1-(pyrazolo[1,5-a]pyridin-3-yl)pyrrolidin-3-yl)-N-(5-(trifluoromethyl)pyridin-3-yl)benzamide]: less than 5 nM and 5 to 25 nM.
For the molecule `Cc1ccc(C(=O)Nc2cncc(C(F)(F)F)c2)cc1[C@@H]1CCN(c2cnc3ccc(C#N)cn23)C1` [Example 78, (S)-3-(1-(6-cyanoimidazo[1,2-a]pyridin-3-yl)pyrrolidin-3-yl)-4-methyl-N-(5-(trifluoromethyl)pyridin-3-yl)benzamide], the inhibitory constant (Ki) in test [1] and in test [2] was less than 5 nM in each case.
For the molecule `Cc1ccc(C(=O)Nc2cncc(C(F)(F)F)c2)cc1[C@@H]1CCN(c2cnc3cccnn23)C1` [Example 36, (S)-3-(1-(imidazo[1,2-b]pyridazin-3-yl)pyrrolidin-3-yl)-4-methyl-N-(5-(trifluoromethyl)pyridin-3-yl)benzamide], the Ki is less than 5 nM in test [1] and 5 to 25 nM in test [2].
In the case of `Cc1ccc(C(=O)Nc2cncc(C(F)(F)F)c2)cc1[C@@H]1CCN(c2ncnc3sccc23)C1` [Example 106, (S)-4-methyl-3-(1-(thieno[2,3-d]pyrimidin-4-yl)pyrrolidin-3-yl)-N-(5-(trifluoromethyl)pyridin-3-yl)benzamide], the Ki in test [1] and in test [2] was 5 to 25 nM throughout.
